Tests used:
Artemia salina nauplii = Artemia salina nauplii toxicity assay; conditions: for toxicity expressed as percent mortality of A. salina nauplii: any of the tested concentrations (62.5-1000 ppm)
Excerpt: Artemia salina is a crustacean sensitive to a wide range of compounds with biological activity and very different chemical structures. Michael et al. (Michael A. S. et al in Science, 1956, 123: 464) and Vanhaecke et al. (Vanhaecke et al in Ecotoxicol Environ Saf 1981, 5:382) proposed its use for toxicity testing. It is a test that allows conducting practically and economically toxicity studies of different nature substances. […] This model is accepted by the FDA (Food Drug Administration) and EPA (Environmental Protection Agency in 2002), as a test for evaluating the toxicity and ecotoxicity of pharmaceutical and/or food products.
In an Artemia salina hatcher, 0.5 g cysts of Artemia salina were hatched in artificial seawater at 37 g/L at a temperature of 27° C. with constant aeration for 24 h. In every 5 wells out of a 96-well plate, 0.1 mL of artificial seawater (37 g/L) was applied with a single-channel pipette with ten nauplii, separated from the hatcher and counted one by one to achieve an exact separation of 10 nauplii. […] Using a multichannel micropipette, 0.1 mL of the solutions prepared in the plate were added, achieving a final concentration of 62.5, 125, 250, 500 and 1000 ppm per five wells of nauplii. For blank samples, 10 untreated nauplii were placed in a 0.2 mL volume of artificial seawater (37 g/L). The microplate was incubated at 25° C. for 24 h. After incubation period, A. salina nauplii alive and dead were counted with a stereoscopic microscope and % mortality was determined. Toxicity was expressed as percent mortality of A. salina nauplii: 0-10% non-toxic, moderately toxic 11-50%, 51-90% highly toxic and 100% extremely toxic, considering the Gualdron et al, scale. (Gualdron R. et al in Chem Rev. Col. Farm, 1997, 26: 15 to 19). […] Data were analyzed with the Statistical Package Graph Pad Prism version 6, by analysis of variance (ANOVA) test and Tukey multiple comparisons (p<0.05).

[1] = system: human embryonic kidney (HEK-293) cell line; test: MTT microdilution assay, HEK-293; format: cell-based
Excerpt: (§1) MTT method, based on reduction of 3-(4,5-dimethylthiazol-2-yl)-2,5-diphenyltetrazolium bromide, is an assay that reflects the metabolic function of cells. MTT is a yellow dye reduced to formazan (blue dye) by mitochondrial dehydrogenases, which are part of the respiratory chain of viable cells (Hwa et al., 2015). It is used in a quantitative colorimetric microdilution method applied for determination of survival and proliferative capacity of mammalian cells (Mosmann T. in J. Immunol Methods, 1983, 65 (1-2): 55). […]
(§2) Dulbecco's modified Eagle Minimum Essential culture Medium/F12 (DMEM/F12) was used, supplemented with 10% fetal bovine serum (FBS) and 1 mL of a mixture of antibiotics (200,000 IU of penicillin and 0.5 g streptomycin). […] Subsequently MTT solution was removed, retaining the formed formazan salts, then they added 0.1 mL of isopropyl alcohol and the absorbance at 540 nm was read in a Synergy HT microplate reader with GEN 5 embedded software. In the calculation of cell viability percentage detected absorbance in wells with cells proliferated in untreated culture medium were considered 100% of living cells. […] Results of data analysis are expressed as the average±standard deviation (FIG. 5).

[2] = system: Vero cell line (African green monkey kidney cells); test: MTT microdilution assay, Vero; format: cell-based
Excerpt: as §1, §2

[3] = system: peripheral human lymphocytes; test: Lymphocyte proliferation and viability, trypan blue count; format: cell-based; conditions: positive control 1.25 mg/mL, 48 h
Excerpt: For the assay, a biological in vitro system using mononuclear cells culture from peripheral blood mononuclear cells—peripheral human lymphocytes was used. The system was selected because they form from 25 to 35% of leukocytes and they are the main immune response promoting cells since they recognize foreign antigens and activate cellular immune response mediators, causing proliferation or suppression phenomena before endogenous or exogenous stimuli. These cultures are widely used in research to evaluate the effects of various compounds (Marti-Centelles R. et al in J. Med Chem Eur, 2015, 103: 488). […] As a positive control the test with concanavalin A (Con A) was performed, which is a globular plant-origin protein that induces mitosis in lymphocytes causing clonal proliferation (Ganem and Martin Gonzalez Baez F A O. in Universo Diagnóstico, 2000, 1 (1):1). Assay with RPMI-1640 (medium without treatment) was performed as blank. […]
Optical light microscope with 40× objective was used. Cells were counted with Neubauer chamber using 0.05 mL suspension of each resuspended samples in 0.4 mL of PBS 1× and 0.05 mL of trypan blue. […] The results were analyzed by the variance analysis test (ANOVA) with SPSS version 16 and then Dunnet's test was applied to discern whether a difference between control and experimental treatments was present, taking values of p<0.05 as significant.

[4] = system: human peripheral blood mononuclear cells (lymphocytes) DNA; conditions: 0.1 mM, positive control, 24 h
Description: By using culture medium cell concentration was adjusted to 1×10^6 cells/mL. Cells obtained were seeded in Eppendorf vials at a density of 3×10^4 cells/mL and incubated at 37° C. and 5% CO2 for 24 hours to stabilize. […] Cells were incubated for 24 h to be later precipitated by centrifugation at 1200 rpm for 5 min and treated with 0.1 mL trypsin (0.25%) for 3 min at 37° C. and 5% CO2. Cells were resuspended in 1 mL of RPMI 1640 medium and centrifuged again at 1200 rpm for 5 min, the supernatant was discarded and the cells were incubated with 1 mL of lysis solution (NaCl 2.5 M, Na2EDTA 100 mM, Tris HCl 10 mM, and 1% Triton) at 4° C. for 24 h. After 24 h, vials were centrifuged at 1200 rpm at 4° C. […] The generated images were acquired with a high resolution digital camera (FIG. 4, above) and analyzed with ImageQuant TL v8.1 software. The area of the comet head representing intact DNA was quantified by densitometric analysis and plotted as percentage versus the negative control (culture medium) (FIG. 4, in the middle). The tail of the comet representing the damaged DNA was measured in millimeters and represented as the percentage of the positive control (H2O2). Data were expressed as mean±mean standard deviation (FIG. 4, below). Data obtained were analyzed by analysis of variance (ANOVA) using in case of any difference a post-hoc Tukey test using GraphPad Prism v6.0 software, at p<0.05.

[5] = system: rats with alloxan-induced diabetes; test: Alloxan-induced diabetes in rats; format: in vivo
Description: (§3) In all tests carried out on laboratory animals the treatment was orally administered in a weight-dependent measure, through orogastric cannula, after conventional feed consumption for rodents and lagomorphs (Commission of the European Communities in Off. J. Eur. Comm (L 383 A), 1992, 35: 110), respectively.
(§4) Body weight was determined and recorded at the beginning and end of the experiment. Also in case of rabbits, clinical laboratory tests were performed before and after each test: blood biometry, blood chemistry and activity of transaminase enzymes: aspartate aminotransferase (AST), alanine aminotransferase (TGP) and transpeptidase gamma glutamyl transaminase (GGT). In rats, these parameters were determined only at the end of testing to prevent blood loss. Finally, we proceeded with the euthanasia step to animals applying a series of anesthetics and potassium chloride (KCl). Subsequently, an organ and fundamental tissue macroscopic examination and necropsy was conducted, primarily including heart, kidney, spleen, pancreas, lung, liver, ovaries and testicles, according to each case. Samples taken were sent to carry out a histopathological study.
(§5) In addition, the test in rats and rabbits with alloxan-induced diabetes was performed. […] Insulin glargine was administered subcutaneously at a dose of 0.7 U/kg in a single morning administration every 24 h.

[6] = system: rabbits with alloxan-induced diabetes; test: Alloxan-induced diabetes in rabbits; format: in vivo
Description: as §3, §4, §5

[7] = positive control, 1.95-2000 ppm

Molecule: 3, 5, 4-trihydroxy-trans-stilbene [resveratrol]
- mortality of A. salina nauplii (Artemia salina nauplii; 62.6 ppm solution, 24 h): 38%
- toxicity class (percent mortality scale) (Artemia salina nauplii; 62.6 ppm solution, 24 h): moderate toxicity
- LC50 (lethal concentration to 50% nauplii) (Artemia salina nauplii; 24 h): 89.48 ppm
- toxicity class (percent mortality scale) (Artemia salina nauplii; from the LC50 concentration (89.48 ppm)): highly toxic (51-90% highly toxic)

Molecule: NCC(=O)O [Glycine, glycine]
- toxicity expressed as percent mortality of A. salina nauplii (Artemia salina nauplii; 24 h): toxicity free

Molecule: Triton X-100
- LC50 ([1]; HEK-293, MTT, 24 h): 764.10±21.93 ppm
- effect on absorbance/viability [1, 7]: dose-depending effect
- LC50 ([2]; Vero, MTT, 24 h): 42.80±1.60 ppm
- effect on absorbance/viability [2, 7]: dose-depending effect

Molecule: concanavalin A
- increase in the number of cells [3]: 65%
- number of cells [3]: 9,101,667 cells/mL

Molecule: N=C(N)NCCC[C@H](N)C(=O)O [arginine]
- toxicity expressed as percent mortality of A. salina nauplii (Artemia salina nauplii; 24 h): toxicity free

Molecule: OO [hydrogen peroxide]
- DNA damage (genotoxicity) [4]: much more rapid dsDNA diffusion

Molecule: insulin
- capillary glucose ([5]; diabetic rats treated only with insulin, up to 19 days): increase in the tendency for capillary glucose
- weight change ([5]; diabetic rats, pure insulin, compared to other groups): tendency of weight loss decrease is much more visible
- macroscopic pancreatic alterations at autopsy ([5]; diabetic rats, single treatment only): most severe pancreatic alterations
- kidney histology ([6]; diabetic female rabbit treated only with insulin): early diabetic nephropathy
- pancreas histology ([6]; diabetic female rabbit treated only with the named treatment): complete destruction of the organ
- kidney histology, tubular component ([6]; diabetic male rabbit treated only with insulin): changes by coagulative necrosis and nuclei pyknosis
- macroscopic pancreatic alterations at autopsy ([6]; diabetic rabbits, single treatment only): most severe pancreatic alterations
